From PMC11665983, “Inhibition of CFTR-mediated intestinal chloride secretion by nornidulin: Cellular mechanisms and anti-secretory efficacy in human intestinal epithelial cells and human colonoids” (PLOS ONE, 2024)

Molecular target: cystic fibrosis transmembrane conductance regulator (CFTR) (Homo sapiens, UniProt P13569)
Assay: CPT-cAMP-stimulated apical chloride current in basolaterally permeabilized T84 monolayers (endogenous CFTR); genistein-stimulated current also inhibited (IC50 […])
Format: cell-based

Chain of cystic fibrosis transmembrane conductance regulator (CFTR) (P13569 whole entry): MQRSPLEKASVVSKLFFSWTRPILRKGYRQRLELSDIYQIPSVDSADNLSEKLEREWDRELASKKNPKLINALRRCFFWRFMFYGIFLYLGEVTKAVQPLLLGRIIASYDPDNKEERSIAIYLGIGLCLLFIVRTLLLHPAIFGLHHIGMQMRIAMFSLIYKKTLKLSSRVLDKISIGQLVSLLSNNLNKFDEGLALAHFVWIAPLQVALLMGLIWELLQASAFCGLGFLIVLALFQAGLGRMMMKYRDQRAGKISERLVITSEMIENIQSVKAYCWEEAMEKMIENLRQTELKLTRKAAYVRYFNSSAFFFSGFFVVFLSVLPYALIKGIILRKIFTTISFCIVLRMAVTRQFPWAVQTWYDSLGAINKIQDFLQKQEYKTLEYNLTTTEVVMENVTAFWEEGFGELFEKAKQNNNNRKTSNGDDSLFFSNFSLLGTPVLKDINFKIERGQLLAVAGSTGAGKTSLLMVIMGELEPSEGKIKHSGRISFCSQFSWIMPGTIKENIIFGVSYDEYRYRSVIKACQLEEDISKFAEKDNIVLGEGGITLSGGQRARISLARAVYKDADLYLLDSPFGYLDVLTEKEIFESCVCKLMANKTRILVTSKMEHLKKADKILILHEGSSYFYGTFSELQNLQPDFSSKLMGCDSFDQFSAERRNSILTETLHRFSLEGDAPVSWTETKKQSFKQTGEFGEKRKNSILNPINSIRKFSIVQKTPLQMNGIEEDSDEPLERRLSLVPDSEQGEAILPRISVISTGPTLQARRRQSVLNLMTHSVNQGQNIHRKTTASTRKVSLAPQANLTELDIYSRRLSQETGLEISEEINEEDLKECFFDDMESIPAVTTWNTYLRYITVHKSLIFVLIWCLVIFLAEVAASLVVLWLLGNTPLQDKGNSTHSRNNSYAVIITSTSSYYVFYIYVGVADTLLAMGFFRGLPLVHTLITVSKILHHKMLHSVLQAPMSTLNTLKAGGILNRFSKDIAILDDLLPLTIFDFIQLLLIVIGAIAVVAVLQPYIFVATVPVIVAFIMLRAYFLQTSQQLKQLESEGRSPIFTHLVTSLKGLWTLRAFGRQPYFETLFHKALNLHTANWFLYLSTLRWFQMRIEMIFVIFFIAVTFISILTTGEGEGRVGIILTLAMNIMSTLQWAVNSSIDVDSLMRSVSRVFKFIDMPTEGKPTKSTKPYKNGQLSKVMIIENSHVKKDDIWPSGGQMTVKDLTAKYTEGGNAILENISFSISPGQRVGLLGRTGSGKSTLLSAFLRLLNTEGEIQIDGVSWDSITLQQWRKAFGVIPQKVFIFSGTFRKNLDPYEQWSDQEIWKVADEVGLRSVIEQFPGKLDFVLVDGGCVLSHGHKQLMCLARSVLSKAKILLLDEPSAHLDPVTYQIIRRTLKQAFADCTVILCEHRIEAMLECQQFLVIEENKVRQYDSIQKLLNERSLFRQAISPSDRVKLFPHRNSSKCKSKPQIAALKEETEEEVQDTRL

IC50: 1030 ± 130 nM
Compound: C/C=C(\C)c1c(Cl)c(O)c(C)c2c1Oc1c(Cl)c(O)c(Cl)c(C)c1C(=O)O2 [N9, nornidulin]
